Source: patent publication US9650405B2, “Modified sophorolipids as oil solubilizing agents” (Polytechnic Institute of New York University, priority 2010, dated 2017)
Blank lines part the entries; values can stand above or below the molecule they belong to.

What was measured:
[1] = Crude oil emulsification activity (turbidity at 610 nm); settings: emulsifier 1 mg/mL
Experimental: Emulsification activity was assessed using Louisiana Crude, Arabian Light Crude, and Prudhoe Bay Crude as the oil phase. A 2 mL solution with emulsifier concentration of 1 mg/mL was prepared. A crude oil (10 mg) was added to the emulsifier aqueous solution, the mixture was vortexed for one minute and the emulsified mixture was allowed to stand for 20 minutes. Emulsification activity was determined by measuring turbidity of the emulsion mixture in a spectrophotometer at 610 nm. The results obtained using SL-ethyl ester, SL-butyl ester, the natural sophorolipid mixture and Triton X-100 as emulsifiers are expressed as D610 and are listed in Table 8. […] Furthermore, a remarkable improvement in emulsification activity was obtained for SL-butyl ester relative to the natural sophorolipid mixture. These comparative results for emulsification of Louisiana Crude, Arabian Light Crude, and Prudhoe Bay Crude oil phase could not be anticipated by one skilled in the art.

[2] = Crude oil clearing/displacement activity; settings: 20 μL of 1 mg/mL solution
Experimental: Oil cleaning assays were performed using Louisiana Crude, Arabian Light Crude, and Prudhoe Bay Crude as the oil phase. In one study, the oil clearing/displacement activity of MSLs were assessed using a crude oil layer on top of sea water in order to simulate oil spill type conditions. Sea water (20 mL) was transferred to plastic Petri dishes and 20 μL of a crude oil type was added on top of the water to create an oil layer. Subsequently, a 20 μL aliquot of MSL solution (1 mg/mL) was added dropwise to the top of the oil layer. The instantaneous formation of an oil clearing zone as well as the diameter of the clearing zone was determined as a function of the dispersant used. […] Furthermore, the oil displacement activity of SL-ethyl ester and SL-butyl ester was slightly higher than Triton-X-100 for Arabian Light crude.

[3] = Lemon oil solubilization, sonication, droplet size by dynamic light scattering; type: physicochemical
Experimental: MSL's used in this example are SL-hexyl ester (16), SL-octyl ester SL (17), and SL-dodecyl ester (18). To test the MSL capacity for lemon oil solubilization, the volume ratio of water to lemon oil, the concentration of surfactant, and the homogenization time (using a sonicator as the means of homogenization) were varied. Concentration of surfactant is calculated on a w/w basis relative to the mass of water being used. To form emulsions, the MSL or other surfactant is first dissolved in the water, oil is added to the solution, and finally the contents of the water/surfactant+oil system is sonicated. Subsequently, the emulsion is allowed to settle for 24 hours at 25° C. before measurements or visual observations are made.
To evaluate the stability of lemon oil solubilization, photographs of emulsions were recorded daily (after the initial 24 hours). Visual observations consisted of assessing solution clarity, extent of creaming and whether oil separation occurs. After selected time periods measurement of emulsion droplet size was performed by dynamic light scattering, which gives an average droplet size in the solution. […] If the emulsion had creamed (separated into two discreet emulsion layers) the average droplet size for each emulsion layer was determined. The results of this study are listed in Table 6, where the first number represents average droplet size in the top emulsion layer and the second represents the average droplet size in the bottom emulsion layer. […] A better performing emulsifier for this study is defined as functioning to form emulsions with smaller average particle size after the aging period.

[4] = lemon oil/water 1/99, sonication 120 sec, 0.5 wt %, 1 Month
[5] = lemon oil/water 5/95, sonication 60 sec, 0.25 weight-%, 1 Month
[6] = lemon oil/water 5/95, sonication 60 sec, 1 weight-%, 1 Month
[7] = lemon oil/water 5/95, sonication 60 sec, 1 weight-%, 1 Week
[8] = lemon oil/water 5/95, sonication 120 sec, 0.25 weight-%, 1 Month
[9] = lemon oil/water 5/95, sonication 120 sec, 0.5 weight-%, 1 Month
[10] = lemon oil/water 5/95, sonication 120 sec, 0.5 weight-%, 1 Week
[11] = lemon oil/water 5/95, sonication 120 sec, 1 weight-%, 1 Month
[12] = lemon oil/water 5/95, sonication 120 sec, 1 weight-%, 1 Week

Oil displacement activity (diameter of the clearing zone) ([2]; Arabian Light Crude on sea water): 6.7 ± 0.14 cm
Oil displacement activity (diameter of the clearing zone) ([2]; Louisiana Crude on sea water): 8.7 ± 0.35 cm
Oil displacement activity (diameter of the clearing zone) ([2]; Prudhoe Bay Crude on sea water): 7.5 cm
SMILES: CCCCOC(=O)CCCCCCCC=CCCCCCCC(C)OC1OC(CO)C(O)C(O)C1OC1OC(CO)C(O)C(O)C1O (stereo not drawn) [Compound 8, SL-Butyl Ester]
Emulsification activity (D610) ([1]; Arabian Crude): 1.77
Emulsification activity (D610) ([1]; Louisiana Crude): 1.50
Emulsification activity (D610) ([1]; Prudhoe Crude): 1.58

average droplet sizes after one month ([3]; lemon oil emulsions, after one month): below 1 μm
Emulsion Droplet Size ([3]; lemon oil/water 1/99, sonication 60 sec, 0.25 weight-%, 1 Month): 138 nm
Emulsion Droplet Size ([3]; lemon oil/water 1/99, sonication 60 sec, 0.25 weight-%, 1 Week): 200 nm
Emulsion Droplet Size ([3]; lemon oil/water 1/99, sonication 60 sec, 1 weight-%, 1 Month): 52 nm
Emulsion Droplet Size ([3]; lemon oil/water 1/99, sonication 60 sec, 1 weight-%, 1 Week): 22 nm
Emulsion Droplet Size ([3]; lemon oil/water 1/99, sonication 120 sec, 0.25 weight-%, 1 Month): 105 nm
Emulsion Droplet Size ([3]; lemon oil/water 1/99, sonication 120 sec, 0.25 weight-%, 1 week): 149 nm
Emulsion Droplet Size, bottom emulsion layer [3, 4]: 82 nm
Emulsion Droplet Size, top emulsion layer [3, 4]: 287 nm
Emulsion Droplet Size ([3]; lemon oil/water 1/99, sonication 120 sec, 0.5 wt %, 1 Week): 255 nm
Emulsion Droplet Size ([3]; lemon oil/water 1/99, sonication 120 sec, 1 weight-%, 1 Month): 26 nm
Emulsion Droplet Size ([3]; lemon oil/water 1/99, sonication 120 sec, 1 weight-%, 1 Week): 20 nm
Emulsion Droplet Size, bottom emulsion layer [3, 5]: 177 nm
Emulsion Droplet Size, top emulsion layer [3, 5]: 506 nm
Emulsion Droplet Size ([3]; lemon oil/water 5/95, sonication 60 sec, 0.25 weight-%, 1 week): 330 nm
Emulsion Droplet Size, bottom emulsion layer [3, 6]: 32 nm
Emulsion Droplet Size, top emulsion layer [3, 6]: 471 nm
Emulsion Droplet Size, bottom emulsion layer [3, 7]: 112 nm
Emulsion Droplet Size, top emulsion layer [3, 7]: 313 nm
Emulsion Droplet Size, bottom emulsion layer [3, 8]: 166 nm
Emulsion Droplet Size, top emulsion layer [3, 8]: 450 nm
Emulsion Droplet Size ([3]; lemon oil/water 5/95, sonication 120 sec, 0.25 weight-%, 1 week): 325 nm
Emulsion Droplet Size, bottom emulsion layer [3, 9]: 120 nm
Emulsion Droplet Size, top emulsion layer [3, 9]: 505 nm
Emulsion Droplet Size, bottom emulsion layer [3, 10]: 29 nm
Emulsion Droplet Size, top emulsion layer [3, 10]: 320 nm
Emulsion Droplet Size, bottom emulsion layer [3, 11]: 25 nm
Emulsion Droplet Size, top emulsion layer [3, 11]: 518 nm
Emulsion Droplet Size, bottom emulsion layer [3, 12]: 246 nm
Emulsion Droplet Size, top emulsion layer [3, 12]: 336 nm
SMILES: CCCCCCOC(=O)CCCCCCCC=CCCCCCCC(C)OC1OC(CO)C(O)C(O)C1OC1OC(CO)C(O)C(O)C1O (stereo not drawn) [Compound 16, SL-Hexyl Ester]
